Like-named read-outs stand apart in the source and are kept apart here.
Assays:
[1] = test system: Wnt activity (Sp5-Luc reporter in SW480 colon carcinoma cells); assay: Wnt activity screening assay (Sp5-Luc reporter gene assay); assay type: cell-based, human
In short: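 SW480 cells stably carrying an Sp5 promoter (eight TCF/LEF sites)-firefly luciferase reporter were plated in DMEM with 1% FBS and treated with a 10-point, 1:3 dilution series from 10 μM (0.1% DMSO) for 36 to 48 h at 37° C. Luminescence was normalized to DMSO controls, and EC50 came from four-parameter nonlinear regression.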

DYRK1A kinase = DYRK1A kinase (Homo sapiens (Human), UniProt Q13627); assay: DYRK1A kinase assay (Ser/Thr 18 peptide Z-lyte, FRET)
Protocol: Each compound was dissolved in DMSO as a 10 mM stock and used to prepare compound source plates.
This is a non-radioactive assay using fluorescence resonance energy transfer (FRET) between coumarin and fluorescein to detect kinase activity which is represented as a ratio of coumarin emission/fluorescein emission.
The mixture was allowed to incubate with the representative compounds for one hour at room temperature. All reactions were performed in duplicate. Unphosphorylated (“0% Control”) and phosphorylated (“100% control”) forms of Ser/Thr 18 served as control reactions. Additionally, an 11-point dose-response curve of Staurosporine (1 uM top) was run to serve as a positive compound control.
After incubation, Development Reagent A was diluted in Development Buffer then added to the reaction and allowed to further incubate for one hour at room temperature.
The percent phosphorylation was then calculated using the following formula: [1−((Em ratio×F100%)−C100%)/((C0%−C100%)+(Em ratio×(F100%−F0%)))]. Dose-response curves were generated and inhibitory concentration (IC50) values were calculated using non-linear regression curve fit in the Dotmatics' Studies Software (Bishops Stortford, UK).

[2] = test system: LL29 cells (primary human fibroblasts derived from IPF patients), α-smooth muscle actin; assay: Inhibition of fibrotic process: αSMA in TGF-β1-treated primary human fibroblasts from IPF patients (LL29 cells); assay type: cell-based; settings: Homo sapiens, Fibroblast; for EC50: 96 h, % αSMA-positive LL29 cells, TGF-β1 20 ng/mL, 4 days; for inhibition at 10 µM: read-out: percent inhibition at 10 μM
In short: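 IPF-patient lung fibroblasts (LL29) were stimulated with TGF-β1 (20 ng/mL) in 1% FBS medium with compound (11-point 1:2 series, 0.1% DMSO) for 4 days at 37 °C. Fixed cells were immunostained for αSMA and imaged, excluding SYTOX-positive dead cells. The % αSMA-positive cells was normalized to TGF-β1/DMSO control wells.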

[3] = test system: SW480 colon carcinoma cells; assay: Cell viability assay (CellTiter-Glo) in SW480 cells; assay type: cell-based, human; settings: Homo sapiens; for EC50: 96 h, cell viability, SW480 cells, four days, CellTiter-Glo;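 as to all read-outs here: SW480 cells stably carrying an Sp5-luciferase TCF/LEF reporter, luminescent ATP signal as viability measure, DMSO-treated cells as control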
IL-6 = IL-6 inhibition in LPS-stimulated human peripheral blood mononuclear cells (HTRF); assay type: cell-based; settings: Homo sapiens, PBMC; for inhibition at 10 µM: read-out: percent value in parentheses below EC50 >10; for EC50: IL-6, LPS-stimulated huPBMCs, HTRF
In short: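 Fresh human PBMCs (5000 cells/well, 1% FBS RPMI) preincubated with compound (10-point 1:3 series from 10 μM, 0.25% DMSO) 2 h at 37 °C, then stimulated with 50 ng/mL E. coli LPS for 22 h. IL-6 by HTRF 665/620 ratio; DMSO-normalized, EC50 from 4-parameter fit.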

GSK3β kinase = GSK3β kinase (Homo sapiens (Human), UniProt P49841); assay: GSK3β kinase assay (Ser/Thr 09 peptide Z-lyte, FRET); assay type: biochemical; settings: method text calls the value IC50;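 also: Coumarin/fluorescein emission ratio converted to percent phosphorylation against unphosphorylated (0%) and phosphorylated (100%) controls, 1 h compound incubation at room temperature, 11-point threefold dilutions from 10 µM, run in duplicate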
Chain of GSK3β kinase (P49841 whole entry): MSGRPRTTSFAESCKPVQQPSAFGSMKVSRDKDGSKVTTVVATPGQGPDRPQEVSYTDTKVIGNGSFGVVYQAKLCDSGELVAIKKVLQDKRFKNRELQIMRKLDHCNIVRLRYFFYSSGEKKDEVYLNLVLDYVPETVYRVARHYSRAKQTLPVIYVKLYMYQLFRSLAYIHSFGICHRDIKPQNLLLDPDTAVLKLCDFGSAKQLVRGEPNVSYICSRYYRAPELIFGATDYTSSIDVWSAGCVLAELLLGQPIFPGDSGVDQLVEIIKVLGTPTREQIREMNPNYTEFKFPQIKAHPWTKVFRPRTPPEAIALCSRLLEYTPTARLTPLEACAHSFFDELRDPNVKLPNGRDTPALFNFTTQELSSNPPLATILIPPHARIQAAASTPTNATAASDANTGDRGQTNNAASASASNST

[4] = test system: Tau phosphorylation at Ser396 (pSer396), SH-SY5Y cells; assay: Tau phosphorylation at Ser396 (pSer396) in SH-SY5Y cells, ELISA/western blot; assay type: cell-based, human; settings: Homo sapiens;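 also: cell lysates probed for reduced Tau pSer396 via ELISA (colorimetric) or western blot (chemiluminescence), both with one shared pSer396 antibody, EC50 for lowering phosphorylation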
[5] = Homo sapiens; Sp5-Luc reporter, SW480 cells, 36 to 48 hours
[6] = SH-SY5Y cells, overnight (16-18 h), read-out: pSer396 Tau EC50
[7] = DYRK1A kinase, method text calls the value IC50

| EC50 [1, 5] [nM] | EC50 (DYRK1A kinase) [nM] | EC50 [3] [nM] | EC50 (IL-6) [nM] | EC50 (GSK3β kinase) [nM] | EC50 [4, 6] [µM] | EC50 (DYRK1A kinase; [7]) [nM] | Structure (SMILES) | EC50 [2] [nM] | inhibition at 10 µM (IL-6) [%] | inhibition at 10 µM [2] [%] | inhibition at 10 µM ([1]; Homo sapiens, SW480; read-out: percent inhibition at 10 μM) [%] | inhibition at 10 µM ([1]; Homo sapiens, SW480, read-out: percent inhibition at 10 μM) [%] | inhibition at 10 µM ([3]; SW480, read-out: percent inhibition at 10 μM) [%] | EC50 ([4]; SH-SY5Y, read-out: pSer396 Tau EC50 (μM)) [µM] |
| --- | --- | --- | --- | --- | --- | --- | --- | --- | --- | --- | --- | --- | --- | --- |
| 1400 |  | 1340 | 379 | 128 | 1.1 | 7 | Cc1ncc(-c2ccc3cnc(NC(=O)[C@H]4CC[C@H](N)CC4)cc3c2)o1 [Compound 149, trans-4-amino-N-(6-(2-methyloxazol-5-yl)isoquinolin-3-yl)cyclohexane-1-carboxamide] | 216 |  |  |  |  |  |  |
| 2190 |  | 3920 | > 10000 | 23 | 0.272 | 13 | Cc1nnc(-c2ccc3cnc(NC(=O)N4CCC(N)CC4)cc3c2)s1 [Compound 150, 4-Amino-N-(6-(5-methyl-1,3,4-thiadiazol-2-yl)isoquinolin-3-yl)piperidine-1-carboxamide] | > 10000 | 5.7 | 43.7 |  |  |  |  |
| 2840 |  | 2550 | > 10000 | 34 | 0.615 | 7 | Cc1nnc(-c2ccc3cnc(NC(=O)N4CCC(NCCF)CC4)cc3c2)s1 [Compound 156, 4-((2-Fluoroethyl)amino)-N-(6-(5-methyl-1,3,4-thiadiazol-2-yl)isoquinolin-3-yl)piperidine-1-carboxamide] | 2380 | 28.8 |  |  |  |  |  |
| 1730 | 19 | 2380 | > 10000 | > 10000 | 0.72 |  | [2H]c1c([2H])c([2H])c(C(=O)Nc2cc3cc(-c4cnc(C)n4C)ccc3cn2)c(F)c1[2H] [Compound 157, N-(6-(1,2-Dimethyl-1H-imidazol-5-yl)isoquinolin-3-yl)-2-fluorobenzamide-3,4,5,6-d4] | 5790 | 0 |  |  |  |  |  |
| 514 | 5 | 781 | 3360 | 2600 | > 10 |  | [2H]c1c([2H])c(C(=O)Nc2cc3cc(-c4cnc(C)n4C)ccc3cn2)c([2H])c([2H])c1F [Compound 158, N-(6-(1,2-Dimethyl-1H-imidazol-5-yl)isoquinolin-3-yl)-4-fluorobenzamide-2,3,5,6-d4] | 1220 |  |  |  |  |  |  |
| 4200 | 27 | 8000 | > 10000 | > 10000 | > 10 |  | [2H]c1c([2H])c([2H])c(C(=O)Nc2cc3cc(-c4cnc(C)n4C)ccc3cn2)c(Cl)c1[2H] [Compound 159, 2-Chloro-N-(6-(1,2-dimethyl-1H-imidazol-5-yl)isoquinolin-3-yl)benzamide-3,4,5,6-d4] | > 10000 | 1.6 | 31.4 |  |  |  |  |
| 309 | 4 | 415 | 3300 | 3030 | > 10 |  | [2H]c1c([2H])c(C(=O)Nc2cc3cc(-c4cnc(C)n4C)ccc3cn2)c([2H])c([2H])c1Cl [Compound 160, 4-Chloro-N-(6-(1,2-dimethyl-1H-imidazol-5-yl)isoquinolin-3-yl)benzamide-2,3,5,6-d4] | 1010 |  |  |  |  |  |  |
| 736 | 10 | 660 | > 10000 | 5670 | > 10 |  | [2H]C([2H])([2H])c1ccc(C(=O)Nc2cc3cc(-c4cnc(C)n4C)ccc3cn2)cc1 [Compound 161, N-(6-(1,2-Dimethyl-1H-imidazol-5-yl)isoquinolin-3-yl)-4-(methyl-d3) benzamide] | 3000 | 42.2 |  |  |  |  |  |

More lines, now with the values behind:

| Structure (SMILES) | EC50 [1, 5] [nM] | EC50 (DYRK1A kinase) [nM] | EC50 [3] [nM] | EC50 (IL-6) [nM] | EC50 (GSK3β kinase) [nM] | EC50 [4, 6] [µM] | EC50 (DYRK1A kinase; [7]) [nM] | EC50 [2] [nM] | inhibition at 10 µM (IL-6) [%] | inhibition at 10 µM [2] [%] | inhibition at 10 µM ([1]; Homo sapiens, SW480; read-out: percent inhibition at 10 μM) [%] | inhibition at 10 µM ([1]; Homo sapiens, SW480, read-out: percent inhibition at 10 μM) [%] | inhibition at 10 µM ([3]; SW480, read-out: percent inhibition at 10 μM) [%] | EC50 ([4]; SH-SY5Y, read-out: pSer396 Tau EC50 (μM)) [µM] |
| --- | --- | --- | --- | --- | --- | --- | --- | --- | --- | --- | --- | --- | --- | --- |
| [2H]C([2H])([2H])C(N[C@H]1CCN(C(=O)Nc2cc3cc(-c4nnc(C)s4)ccc3cn2)C[C@@H]1F)C([2H])([2H])[2H] [Compound 139, (3S,4S)-3-Fluoro-N-(6-(5-methyl-1,3,4-thiadiazol-2-yl)isoquinolin-3-yl)-4-((propan-2-yl-1,1,1,3,3,3-d6)amino)piperidine-1-carboxamide] | 2820 | 22 | 7350 | > 10000 | 33 | 1.4 |  | 2350 | 6.6 |  |  |  |  |  |
| [2H]C1([2H])OC([2H])([2H])C([2H])([2H])N(C(=O)Nc2cc3cc(-c4cnc(C)n4C)ccc3cn2)C1([2H])[2H] [Compound 143, N-(6-(1,2-Dimethyl-1H-imidazol-5-yl)isoquinolin-3-yl)morpholine-d8-4-carboxamide] | 2940 | 11 | 3360 | > 10000 | 1780 | 7.2 |  | > 10000 | 5.7 | 40.4 |  |  |  |  |
| [2H]C([2H])([2H])N([C@H]1CC[C@H](C(=O)Nc2cc3cc(-c4cnc(C)o4)ccc3cn2)CC1)C([2H])([2H])[2H] [Compound 144, trans-4-(Bis(methyl-d3)amino)-N-(6-(2-methyloxazol-5-yl)isoquinolin-3-yl) cyclohexane-1-carboxamide] | > 10000 | 20 | 3770 | > 10000 | 21 | > 10 |  | 1380 | 14.3 |  | 35.8 |  |  |  |
| [2H]C([2H])([2H])N([C@H]1CC[C@H](C(=O)Nc2cc3cc(-c4cnn(C)c4)ccc3cn2)CC1)C([2H])([2H])[2H] [Compound 145, trans-4-(Bis(methyl-d3)amino)-N-(6-(1-methyl-1H-pyrazol-4-yl)isoquinolin-3-yl)cyclohexane-1-carboxamide] | 1820 | 2 | 1490 | 371 | 80 | 0.503 |  | 72 |  |  |  |  |  |  |
| Cc1nnc(-c2ccc3cnc(NC(=O)N4CCN(C(C)C)CC4)cc3c2)s1 [Compound 146, 4-Isopropyl-N-(6-(5-methyl-1,3,4-thiadiazol-2-yl)isoquinolin-3-yl) piperazine-1-carboxamide] | 3110 |  | 3840 | > 10000 | 62 | 1 | 22 | > 10000 | 2.1 | 35.1 |  |  |  |  |
| Cc1nnc(-c2ccc3cnc(NC(=O)N4CCC(NCCC(F)(F)F)CC4)cc3c2)s1 [Compound 147, N-(6-(5-Methyl-1,3,4-thiadiazol-2-yl)isoquinolin-3-yl)-4-((3,3,3-trifluoropropyl)amino)piperidine-1-carboxamide] | 3330 |  | 4140 | > 10000 | 37 | 1.1 | 18 | 1640 | 36.8 |  |  |  |  |  |
| Cc1ncc(-c2ccc3cnc(NC(=O)[C@H]4CC[C@H](NCCC(F)(F)F)CC4)cc3c2)o1 [Compound 148, trans-N-(6-(2-Methyloxazol-5-yl)isoquinolin-3-yl)-4-((3,3,3-trifluoropropyl)amino)cyclohexane-1-carboxamide] | 3440 |  | 1200 | 414 | 257 | 0.599 | 14 | 286 |  |  |  |  |  |  |
| Cc1nnc(-c2ccc3cnc(NC(=O)N4[C@@H]5CC[C@H]4C[C@H](N)C5)cc3c2)s1 [Compound 151, (1R,5S)-3-exo-Amino-N-(6-(5-methyl-1,3,4-thiadiazol-2-yl)isoquinolin-3-yl)-8-azabicyclo[3.2.1]octane-8-carboxamide] | > 10000 |  | > 10000 | > 10000 | 103 |  | 9 | 2690 | 13.1 |  |  | 4.4 | 0 | 2.6 |
| Cc1ncc(-c2ccc3cnc(NC(=O)C4CCC(N5CC5CF)CC4)cc3c2)o1 (stereo not drawn) [Compound 154, trans-4-(2-(fluoromethyl)aziridin-1-yl)-N-(6-(2-methyloxazol-5-yl)isoquinolin-3-yl)cyclohexane-1-carboxamide] | 2760 | 5 | 761 | 1130 | 124 | 0.58 |  | 240 |  |  |  |  |  |  |
